Data taken from patent US20100292179A1, “TARGET” (The University of Durham, priority 2006, published 2010).
Starred links: 1 amine or outer side, 2 acyl side, 3 side chain; linkers in the order of their positions; H or OH if unused. Non-standard residues stand in square brackets, D forms with d. Residues, ends and D or L forms follow the SMILES beside them. X1 = CC[C@@H](C)[C@@H](O[*:1])C(=O)[*:2]; NMeVal(β-OH) = CN[C@H](C(=O)O)C(C)(C)O; NMeF = CN[C@@H](Cc1ccccc1)C(=O)O; aIle = CC[C@@H](C)[C@H](N)C(=O)O; NMeV = CN[C@H](C(=O)O)C(C)C

Assays:
IPC synthase = biological target: T1, IPC synthase (Saccharomyces cerevisiae, UniProt P36107); conditions: with respect to ceramide; cited from earlier work
T1 sequence (P36107 1-401): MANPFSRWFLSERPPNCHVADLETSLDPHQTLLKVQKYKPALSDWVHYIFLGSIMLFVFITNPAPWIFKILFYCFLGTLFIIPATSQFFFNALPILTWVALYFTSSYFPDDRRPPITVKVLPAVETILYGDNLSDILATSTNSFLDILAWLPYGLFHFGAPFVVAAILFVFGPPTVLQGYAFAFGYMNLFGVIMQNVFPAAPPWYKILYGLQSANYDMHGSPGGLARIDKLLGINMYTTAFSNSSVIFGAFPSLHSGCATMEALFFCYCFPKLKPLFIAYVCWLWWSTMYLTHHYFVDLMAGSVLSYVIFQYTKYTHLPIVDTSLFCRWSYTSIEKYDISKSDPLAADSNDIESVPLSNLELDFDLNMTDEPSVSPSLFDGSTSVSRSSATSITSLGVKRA
T1 sequence (Q06346 1-221 partner): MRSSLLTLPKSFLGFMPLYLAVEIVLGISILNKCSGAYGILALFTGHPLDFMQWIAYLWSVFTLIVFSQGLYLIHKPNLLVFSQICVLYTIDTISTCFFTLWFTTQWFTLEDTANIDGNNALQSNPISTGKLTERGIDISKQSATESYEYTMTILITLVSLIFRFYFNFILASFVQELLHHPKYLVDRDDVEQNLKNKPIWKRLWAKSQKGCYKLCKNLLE

[1] = system: YPH499-HIS-GAL-AUR1 complemented with LmIPCS; assay: Agar diffusion assay, yeast mutant rescued with LmIPCS; type: cell-based, S. cerevisiae
Experimental: (§1) A. Volumes of 1, 2 and 3 μl of 25 μM Aureobasidin A (AbA), 1 mM myriocin (MYR), 25 μM cycloheximide (CYC) and DMSO as a control (CTL) spotted onto yeast plates prepared as described in Experimental Procedures. B. Volumes of 1, 2 and 3 μl of 100 μM Aureobasidin A spotted onto yeast plates prepared as described in Experimental Procedures.
(§2) YPH499—wild type yeast; ScIPCS—YPH499-HIS-GAL-AUR1 pRS426 ScIPCS; LmIPCS—YPH499-HIS-GAL-AUR1 pRS426 LmIPCS; AGD—yeast sphingolipid bypass mutant, negative control.
(§3) Agar diffusion assay—Wild type YPH499 yeast and the transgenic strain YPH499-HIS-GAL-AUR1 complemented with ScIPCS or LmIPCS were assayed for susceptibility to Aureobasidin A (Takara), myriocin (Sigma) and cycloheximide (Sigma) as previously described (19). Briefly, 2.4×10^7 logarithmically dividing cells were embedded in 15 ml of YPD agararose (2% dextrose, 1% yeast extract, 2% peptone, 0.8% agarose) on […] square Petri dishes (Sarstedt). Inhibitors were applied in DMSO at the concentrations described below and the dishes incubated at 30° C.
(§4) In this study, the diffusion assay system previously described, with the sphingolipid bypass mutant (AGD) as a negative control, was utilized (6,19).

[2] = system: AGD yeast sphingolipid bypass mutant; assay: Agar diffusion assay, sphingolipid bypass mutant (negative control); type: cell-based, S. cerevisiae; conditions: 100 μM Aureobasidin A
Experimental: as §1, §2, §3, §4

[3] = system: parasites without an active sphingolipid biosynthetic pathway; assay: Effect on Leishmania parasites without an active sphingolipid biosynthetic pathway; type: cell-based; conditions: 20 μM; data not shown
Wild type YPH499 yeast = assay: Agar diffusion assay, wild type yeast; type: cell-based, S. cerevisiae; conditions: FIG. 5A; 25 μM Aureobasidin A, 1 mM myriocin, 25 μM cycloheximide spotted
Experimental: as §1, §2, §3, §4

[4] = system: samples from fungal Aspergillus spp.; conditions: lack of susceptibility attributed to efflux; cited from earlier work
insect stage Leishmania = assay: Effect on insect stage Leishmania in culture; type: cell-based; conditions: 20 μM; data not shown
T. cruzi enzyme (TcIPCS) = conditions: even at levels 1000 fold higher than that which inhibit the S. cerevisiae enzyme; crude parasite membrane extracts; cited from earlier work
[5] = system: YPH499-HIS-GAL-AUR1 complemented with ScIPCS; assay: Agar diffusion assay, yeast mutant rescued with ScIPCS; type: cell-based, S. cerevisiae; conditions: FIG. 5A; 25 μM Aureobasidin A, 1 mM myriocin, 25 μM cycloheximide spotted
Experimental: as §1, §2, §3, §4

[6] = FIG. 5A, 1, 2 and 3 μl of 25 μM Aureobasidin A, 1 mM myriocin, 25 μM cycloheximide spotted, 30° C.

SMILES | mode of inhibition (IPC synthase) | susceptibility in agar diffusion assay [1, 6] | susceptibility in agar diffusion assay ([1]; FIG. 5B, 100 μM Aureobasidin A, 1, 2 and 3 μl spotted) | inhibitory effect on growth [2] | activity against parasites in which LmIPCS is redundant, relative to insect stage Leishmania [3] | susceptibility in agar diffusion assay (Wild type YPH499 yeast) | susceptibility of Aspergillus spp. samples [4] | effect against insect stage Leishmania in culture (insect stage Leishmania) | specificity of the inhibitor in Leishmania culture (insect stage Leishmania) | T. cruzi enzyme activity (T. cruzi enzyme (TcIPCS)) | susceptibility in agar diffusion assay [5] | sensitivity compared with wild-type or mutant rescued with ScIPCS ([1]; FIG. 5A, 1 mM myriocin)
CC[C@@H](C)[C@@H]1NC(=O)[C@@H]2CCCN2C(=O)[C@H](Cc2ccccc2)N(C)C(=O)[C@H](Cc2ccccc2)NC(=O)[C@H](C(C)C)N(C)C(=O)[C@@H]([C@H](C)CC)OC(=O)[C@H](C(C)(C)O)N(C)C(=O)[C@H](CC(C)C)NC(=O)[C@H](C(C)C)N(C)C1=O [Aureobasidin A] (cyclo(F[NMeF]P[aIle][NMeV]L[NMeVal(β-OH)][X1][NMeV])) | non-competitive inhibitor | resistant | sensitivity of LmIPCS to the drug was evident | lack of an inhibitory effect | equivalent activity | sensitive | only susceptible to Aureobasidin A in the presence of mammalian multi-drug resistance modulators | exhibited an effect | non-specific | unaffected | sensitive | –
C[C@@H]1C[C@@H]([C@H](O)CC2CC(=O)NC(=O)C2)C(=O)[C@@H](C)C1 [cycloheximide] | – | sensitive | – | – | – | sensitive | – | – | – | – | sensitive | –
CCCCCCC(=O)CCCCCC/C=C/C[C@@H](O)[C@H](O)[C@@](N)(CO)C(=O)O [myriocin] | – | sensitive | – | – | – | sensitive | – | – | – | – | sensitive | increased sensitivity
C=C1/C=C(\C)[C@H](CC)CC(=O)[C@H](C)C(=O)[C@@](O)(CO)C/C(OC)=C/[C@@H](C)C1 [rustmicin] | – | – | – | – | – | – | – | – | – | unaffected | – | –
